In publication PMC8931335 (Proceedings of the National Academy of Sciences of the …, 2022):

Biological target: T1, MOR42-3 (Mus musculus, UniProt E9PX47)
T1 sequence (E9PX47 1-334): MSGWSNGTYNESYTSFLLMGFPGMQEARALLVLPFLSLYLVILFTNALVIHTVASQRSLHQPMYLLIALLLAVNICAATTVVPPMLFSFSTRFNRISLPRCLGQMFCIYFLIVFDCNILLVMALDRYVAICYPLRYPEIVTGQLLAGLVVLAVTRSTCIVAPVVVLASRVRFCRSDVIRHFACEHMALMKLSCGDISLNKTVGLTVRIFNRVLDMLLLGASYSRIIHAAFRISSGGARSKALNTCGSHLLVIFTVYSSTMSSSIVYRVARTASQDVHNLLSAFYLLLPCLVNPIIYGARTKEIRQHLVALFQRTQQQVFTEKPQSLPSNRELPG
Assay: CRE luciferase reporter assay in Hana3A cells
Format: cell-based

## O=C(O)CCCCCCCC(=O)O [NA]
  EC50: 29.4 ± 12.8 µM
